Patent US20230265151A1, “GIP/GLP1 CO-AGONIST COMPOUNDS” (priority 2020, published 2023)
Like-named read-outs stand apart in the source and are kept apart here.

Key:
Format in all cases: cell-based
hGCGR = biological target: T1, hGCGR (Homo sapiens, UniProt P47871); experiment: Functional cAMP formation (HTRF) in HEK-293 clonal cells expressing hGCGR, 0.1% bovine casein, without or with 1.0% human serum albumin
T1 construct: expressed in transfected cells
How it was run: (§1)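 Readings of the HTRF 665/620 nm ratio, which falls as cAMP rises, were converted to nM cAMP using a standard curve after 30 min peptide exposure at 37° C.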

hGLP-1R = hGLP-1R (Homo sapiens, UniProt P43220); experiment: Functional cAMP formation (HTRF) in HEK-293 clonal cells expressing hGLP-1R, 0.1% bovine casein, without or with 1.0% human serum albumin; set-up: expressed in transfected cells; details: for EC50: geometric mean
Sequence of hGLP-1R (P43220 24-463): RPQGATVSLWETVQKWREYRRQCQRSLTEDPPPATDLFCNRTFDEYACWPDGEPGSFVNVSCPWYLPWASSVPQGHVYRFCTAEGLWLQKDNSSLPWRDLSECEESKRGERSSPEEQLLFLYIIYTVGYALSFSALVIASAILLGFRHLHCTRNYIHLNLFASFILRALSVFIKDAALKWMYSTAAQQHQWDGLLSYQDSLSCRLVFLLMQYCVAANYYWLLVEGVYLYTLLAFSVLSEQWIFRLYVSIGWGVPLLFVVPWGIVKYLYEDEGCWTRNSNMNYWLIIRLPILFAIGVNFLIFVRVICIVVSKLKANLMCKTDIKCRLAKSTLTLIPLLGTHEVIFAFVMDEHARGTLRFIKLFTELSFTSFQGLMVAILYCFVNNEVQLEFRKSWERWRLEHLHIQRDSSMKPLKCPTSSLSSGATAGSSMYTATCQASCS
How it was run: as §1

hGIPR = biological target: T2, hGIPR (Homo sapiens, UniProt P48546); experiment: Functional cAMP formation (HTRF) in HEK-293 clonal cells expressing hGIPR, 0.1% bovine casein, without or with 1.0% human serum albumin; details: for EC50: geometric mean
T2 construct: expressed in transfected cells
T2 sequence (P48546 22-466): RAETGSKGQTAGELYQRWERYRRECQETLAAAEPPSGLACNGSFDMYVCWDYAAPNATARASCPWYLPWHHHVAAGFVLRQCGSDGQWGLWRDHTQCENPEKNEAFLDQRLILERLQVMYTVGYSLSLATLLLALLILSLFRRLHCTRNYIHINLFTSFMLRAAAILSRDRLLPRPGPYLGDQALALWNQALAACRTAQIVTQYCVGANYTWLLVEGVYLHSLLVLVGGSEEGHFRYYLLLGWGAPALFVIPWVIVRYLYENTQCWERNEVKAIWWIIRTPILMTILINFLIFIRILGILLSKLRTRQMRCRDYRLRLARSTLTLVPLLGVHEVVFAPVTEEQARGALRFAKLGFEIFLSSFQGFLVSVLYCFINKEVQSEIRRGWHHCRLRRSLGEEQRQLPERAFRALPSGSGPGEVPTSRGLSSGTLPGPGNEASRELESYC
How it was run: as §1

[1] = hGCGR EC50, nM (SEM, n), cAMP, incubated at 37° C., 0.1% bovine casein (no human serum albumin), geometric mean
[2] = HEK293, read-out: hGIPR Emax, % ± SEM, percent of maximal response to GIP(1-42)NH2, 37° C., 0.1% bovine casein, arithmetic mean
[3] = 0.1% bovine casein and 1.0% human serum albumin, 37° C., geometric mean, read-out: hGCGR EC50, nM (SEM, n)
[4] = cAMP, incubated at 37° C., 0.1% bovine casein (no human serum albumin), geometric mean, read-out: hGCGR EC50, nM (SEM, n)
[5] = 0.1% bovine casein and 1.0% human serum albumin, 37° C., read-out: hGLP-1R EC50, nM (SEM, n)
[6] = HEK293, 0.1% bovine casein and 1.0% human serum albumin, 37° C., percent of maximal response to GLP-1(7-36)NH2, read-out: hGLP-1R Emax, % ± SEM
[7] = cAMP, incubated at 37° C., 0.1% bovine casein (no human serum albumin), read-out: hGLP-1R EC50, nM (SEM, n)
[8] = HEK293, 0.1% bovine casein and 1.0% human serum albumin, 37° C., percent of maximal response to GIP(1-42)NH2, read-out: hGIPR Emax, % ± SEM

T1 sequence (P47871 26-477): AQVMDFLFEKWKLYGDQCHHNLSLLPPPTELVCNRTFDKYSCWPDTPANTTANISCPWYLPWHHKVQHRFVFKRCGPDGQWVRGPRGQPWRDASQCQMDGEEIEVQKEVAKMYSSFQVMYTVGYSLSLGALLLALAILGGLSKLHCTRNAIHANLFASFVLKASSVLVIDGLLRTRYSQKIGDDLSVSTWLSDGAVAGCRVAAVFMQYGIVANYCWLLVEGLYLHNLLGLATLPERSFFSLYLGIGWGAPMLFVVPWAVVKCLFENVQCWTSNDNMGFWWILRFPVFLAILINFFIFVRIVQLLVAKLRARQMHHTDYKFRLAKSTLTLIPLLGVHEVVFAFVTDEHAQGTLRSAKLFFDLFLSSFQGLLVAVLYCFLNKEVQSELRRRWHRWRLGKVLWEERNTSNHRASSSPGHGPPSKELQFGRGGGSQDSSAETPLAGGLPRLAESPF

In the case of `CC[C@H](C)[C@H](NC(=O)[C@H](CC(C)C)NC(=O)[C@](C)(Cc1ccc(O)cc1)NC(=O)[C@H](CCCCNC(=O)COCCOCCNC(=O)COCCOCCNC(=O)CC[C@H](NC(=O)CCCCCCCCCCCCC(=O)O)C(=O)O)NC(=O)[C@@H](NC(=O)[C@H](Cc1ccccc1)NC(=O)[C@H](CCC(=O)O)NC(=O)C(C)(C)NC(=O)[C@H](CCC(N)=O)NC(=O)[C@H](C)NC(=O)[C@H](CCCCNC(=O)COCCOCCNC(=O)COCCOCCNC(=O)CC[C@H](NC(=O)CCCCCCCCCCCCC(=O)O)C(=O)O)NC(=O)[C@H](CCCN)NC(=O)[C@H](CC(=O)O)NC(=O)[C@H](CC(C)C)NC(=O)[C@](C)(CC(C)C)NC(=O)[C@@H](NC(=O)[C@H](CO)NC(=O)[C@@H](NC(=O)[C@H](CC(=O)O)NC(=O)[C@H](CO)NC(=O)[C@@H](NC(=O)[C@](C)(Cc1ccccc1)NC(=O)[C@@H](NC(=O)CNC(=O)[C@H](CCC(=O)O)NC(=O)C(C)(C)NC(=O)[C@@H](N)Cc1ccc(O)cc1)[C@@H](C)O)[C@@H](C)O)C(C)C)[C@@H](C)CC)[C@@H](C)CC)C(=O)N[C@@H](CCC(=O)O)C(=O)NCC(=O)NCC(=O)N1CCC[C@H]1C(=O)N[C@@H](CO)C(=O)N[C@@H](CO)C(=O)NCC(=O)N[C@@H](C)C(=O)N1CCC[C@H]1C(=O)N1CCC[C@H]1C(=O)N1CCC[C@H]1C(=O)N[C@@H](CO)C(N)=O` [Example 181], the EC50 (hGCGR; [1]) is reported as > 9950 nM, the EC50 (hGLP-1R; hGLP-1R EC50, nM (SEM, n), cAMP, incubated at 37° C., 0.1% bovine casein (no human serum albumin)) is reported as 0.182 nM and the Emax (hGIPR; [2]) is reported as 94.6%. It also gave an EC50 (hGIPR; hGIPR EC50, nM (SEM, n), cAMP, incubated at 37° C., 0.1% bovine casein (no human serum albumin)) of 0.154 nM.
For `CC[C@H](C)[C@H](NC(=O)[C@H](CC(C)C)NC(=O)[C@](C)(Cc1ccc(O)cc1)NC(=O)[C@@H](CCC(=O)O)NC(=O)[C@@H](NC(=O)[C@H](Cc1ccccc1)NC(=O)[C@H](CCC(=O)O)NC(=O)C(C)(C)NC(=O)[C@H](CCC(N)=O)NC(=O)[C@H](C)NC(=O)[C@H](CCCCNC(=O)COCCOCCNC(=O)COCCOCCNC(=O)CCCCCCCCCCCCC(=O)O)NC(=O)[C@H](CCCN)NC(=O)[C@H](CC(=O)O)NC(=O)[C@H](CC(C)C)NC(=O)[C@](C)(CC(C)C)NC(=O)[C@@H](NC(=O)C(C)(C)NC(=O)[C@H](Cc1ccncc1)NC(=O)[C@H](CC(=O)O)NC(=O)[C@H](CO)NC(=O)[C@@H](NC(=O)[C@](C)(Cc1ccccc1F)NC(=O)[C@@H](NC(=O)CNC(=O)[C@H](CCC(=O)O)NC(=O)C(C)(C)NC(=O)[C@@H](N)Cc1ccc(O)cc1)[C@@H](C)O)[C@@H](C)O)[C@@H](C)CC)[C@@H](C)CC)C(=O)N[C@@H](CCCCNC(=O)COCCOCCNC(=O)COCCOCCNC(=O)CCCCCCCCCCCCC(=O)O)C(=O)NCC(=O)NCC(=O)N1CCC[C@H]1C(=O)N[C@@H](CO)C(=O)N[C@@H](CO)C(=O)NCC(=O)N[C@@H](C)C(=O)N1CCC[C@H]1C(=O)N1CCC[C@H]1C(=O)N1CCC[C@H]1C(=O)N[C@@H](CO)C(N)=O` [Example 387], the EC50 (hGCGR; cAMP, 37° C., 0.1% bovine casein (no human serum albumin), geometric mean, read-out: hGCGR EC50, nM (SEM, n)) was > 9950 nM, the EC50 (hGCGR; cAMP, 37° C., 0.1% bovine casein and 1.0% human serum albumin, geometric mean (SEM, n), read-out: hGCGR EC50, nM (SEM, n)) was > 9950 nM and the EC50 (hGLP-1R; cAMP, 37° C., 0.1% bovine casein (no human serum albumin), read-out: hGLP-1R EC50, nM (SEM, n)) was 0.32 nM. It also gave an Emax (hGIPR; HEK293, cAMP, 37° C., 0.1% bovine casein and 1.0% human serum albumin, percent of maximal response to GIP(1-42)NH2, read-out: hGIPR Emax, % ± SEM) of 93% and an EC50 (hGIPR; cAMP, 37° C., 0.1% bovine casein (no human serum albumin), read-out: hGIPR EC50, nM (SEM, n)) of 0.0137 nM.
For `CC[C@H](C)[C@H](NC(=O)[C@H](CC(C)C)NC(=O)[C@](C)(Cc1ccc(O)cc1)NC(=O)[C@H](CCCCNC(=O)COCCOCCNC(=O)COCCOCCNC(=O)CC[C@H](NC(=O)CCCCCCCCCCCCC(=O)O)C(=O)O)NC(=O)[C@@H](NC(=O)[C@](C)(Cc1ccccc1)NC(=O)[C@H](CCC(=O)O)NC(=O)C(C)(C)NC(=O)[C@H](CCC(N)=O)NC(=O)[C@H](C)NC(=O)[C@H](CCCCNC(=O)COCCOCCNC(=O)COCCOCCNC(=O)CC[C@H](NC(=O)CCCCCCCCCCCCC(=O)O)C(=O)O)NC(=O)[C@H](CCCN)NC(=O)[C@H](CC(=O)O)NC(=O)[C@H](CC(C)C)NC(=O)[C@](C)(CC(C)C)NC(=O)[C@@H](NC(=O)C(C)(C)NC(=O)[C@H](Cc1ccncc1)NC(=O)[C@H](CC(=O)O)NC(=O)[C@H](CO)NC(=O)[C@@H](NC(=O)[C@](C)(Cc1ccccc1F)NC(=O)[C@@H](NC(=O)CNC(=O)[C@H](CCC(=O)O)NC(=O)C(C)(C)NC(=O)[C@@H](N)Cc1ccc(O)cc1)[C@@H](C)O)[C@@H](C)O)[C@@H](C)CC)[C@@H](C)CC)C(=O)N[C@@H](CCC(=O)O)C(=O)NCC(=O)NCC(=O)N1CCC[C@H]1C(=O)N[C@@H](CO)C(=O)N[C@@H](CO)C(=O)NCC(=O)N[C@@H](C)C(=O)N1CCC[C@H]1C(=O)N1CCC[C@H]1C(=O)N1CCC[C@H]1C(=O)N[C@@H](CO)C(N)=O` [Example 117], the EC50 (hGCGR; [1]) was > 9950 nM, the Emax (hGLP-1R; HEK293, read-out: hGLP-1R Emax, % ± SEM, percent of maximal response to GLP-1(7-36)NH2, 37° C., 0.1% bovine casein, arithmetic mean) was 98.2% and the Emax (hGIPR; [2]) was 96.4%.
In the case of `CC[C@H](C)[C@H](NC(=O)[C@H](CCCN)NC(=O)[C@H](CC(=O)O)NC(=O)[C@H](CC(C)C)NC(=O)[C@](C)(CC(C)C)NC(=O)[C@@H](NC(=O)[C@H](CO)NC(=O)[C@H](Cc1ccncc1)NC(=O)[C@H](CC(=O)O)NC(=O)[C@H](CO)NC(=O)[C@@H](NC(=O)[C@](C)(Cc1ccccc1F)NC(=O)[C@@H](NC(=O)CNC(=O)[C@H](CCC(=O)O)NC(=O)C(C)(C)NC(=O)[C@@H](N)Cc1ccc(O)cc1)[C@@H](C)O)[C@@H](C)O)[C@@H](C)CC)C(=O)N[C@@H](C)C(=O)N[C@@H](CCC(N)=O)C(=O)NC(C)(C)C(=O)N[C@@H](CCC(=O)O)C(=O)N[C@@H](Cc1ccccc1)C(=O)N[C@H](C(=O)N[C@@H](CCCCNC(=O)COCCOCCNC(=O)COCCOCCNC(=O)CC[C@H](NC(=O)CCCc1ccc(C(C)(C)C)cc1)C(=O)O)C(=O)N[C@@](C)(Cc1ccc(O)cc1)C(=O)N[C@@H](CC(C)C)C(=O)N[C@H](C(=O)N[C@@H](CCCCNC(=O)COCCOCCNC(=O)COCCOCCNC(=O)CC[C@H](NC(=O)CCCc1ccc(C(C)(C)C)cc1)C(=O)O)C(=O)NCC(=O)NCC(=O)N1CCC[C@H]1C(=O)N[C@@H](CO)C(=O)N[C@@H](CO)C(=O)NCC(=O)N[C@@H](C)C(=O)N1CCC[C@H]1C(=O)N1CCC[C@H]1C(=O)N1CCC[C@H]1C(=O)N[C@@H](CO)C(N)=O)[C@@H](C)CC)[C@@H](C)CC` [Example 203], the EC50 (hGCGR; [3]) is reported as > 9950 nM, the EC50 (hGCGR; [4]) is reported as > 9950 nM and the EC50 (hGLP-1R; [5]) is reported as 3.38 nM. For the same molecule, the Emax (hGLP-1R; [6]) was 105%, the Emax (hGLP-1R; HEK293, percent of maximal response to GLP-1(7-36)NH2, 37° C., 0.1% bovine casein, arithmetic mean, read-out: hGLP-1R Emax, % ± SEM) was 119% and the EC50 (hGLP-1R; [7]) was 0.535 nM. The Emax (hGIPR; [8]) was 87.2%.
In the case of `CC[C@H](C)[C@H](NC(=O)[C@H](CC(C)C)NC(=O)[C@](C)(Cc1ccc(O)cc1)NC(=O)[C@@H](CCC(=O)O)NC(=O)[C@@H](NC(=O)[C@H](Cc1ccccc1)NC(=O)[C@H](CCC(=O)O)NC(=O)C(C)(C)NC(=O)[C@H](CCC(N)=O)NC(=O)[C@H](C)NC(=O)[C@H](CCCCNC(=O)[C@@H](N)CCCCNC(=O)CC[C@H](NC(=O)CCCCCCCCCCCCC(=O)O)C(=O)O)NC(=O)[C@H](CCCN)NC(=O)[C@H](CC(=O)O)NC(=O)[C@H](CC(C)C)NC(=O)[C@](C)(CC(C)C)NC(=O)[C@@H](NC(=O)[C@H](CO)NC(=O)[C@H](Cc1ccncc1)NC(=O)[C@H](CC(=O)O)NC(=O)[C@H](CO)NC(=O)[C@@H](NC(=O)[C@](C)(Cc1ccccc1F)NC(=O)[C@@H](NC(=O)CNC(=O)[C@H](CCC(=O)O)NC(=O)C(C)(C)NC(=O)[C@@H](N)Cc1ccc(O)cc1)[C@@H](C)O)[C@@H](C)O)[C@@H](C)CC)[C@@H](C)CC)C(=O)N[C@@H](CCC(=O)O)C(=O)NCC(=O)NCC(=O)N[C@@H](CCCCNC(=O)[C@@H](N)CCCCNC(=O)CC[C@H](NC(=O)CCCCCCCCCCCCC(=O)O)C(=O)O)C(=O)N[C@@H](CO)C(=O)N[C@@H](CO)C(=O)NCC(=O)N[C@@H](C)C(=O)N1CCC[C@H]1C(=O)N1CCC[C@H]1C(=O)N1CCC[C@H]1C(=O)N[C@@H](CO)C(N)=O` [Example 38], the EC50 (hGCGR; [3]) is reported as > 9950 nM, the EC50 (hGCGR; [4]) is reported as > 9950 nM and the EC50 (hGLP-1R; [5]) is reported as 12.5 nM. For the same molecule, the Emax (hGLP-1R; [6]) was 115 ± 2.53%, the EC50 (hGLP-1R; [7]) was 0.225 nM and the EC50 (hGIPR; 0.1% bovine casein and 1.0% human serum albumin, 37° C., read-out: hGIPR EC50, nM (SEM, n)) was 0.539 nM. The Emax (hGIPR; [8]) was 88.8 ± 0.59% and the EC50 (hGIPR; cAMP, incubated at 37° C., 0.1% bovine casein (no human serum albumin), read-out: hGIPR EC50, nM (SEM, n)) was 0.0155 nM.
